# US20050164951A1, “Inhibitors for the soluble epoxide hydrolase” (The Regents of the University of California, priority 2003, published 2005)
# Target: T1, mouse sEH (Mus musculus, UniProt P34914)
# T1 construct: made in house; host or cells: baculovirus expression system
# T1 sequence (P34914 1-554): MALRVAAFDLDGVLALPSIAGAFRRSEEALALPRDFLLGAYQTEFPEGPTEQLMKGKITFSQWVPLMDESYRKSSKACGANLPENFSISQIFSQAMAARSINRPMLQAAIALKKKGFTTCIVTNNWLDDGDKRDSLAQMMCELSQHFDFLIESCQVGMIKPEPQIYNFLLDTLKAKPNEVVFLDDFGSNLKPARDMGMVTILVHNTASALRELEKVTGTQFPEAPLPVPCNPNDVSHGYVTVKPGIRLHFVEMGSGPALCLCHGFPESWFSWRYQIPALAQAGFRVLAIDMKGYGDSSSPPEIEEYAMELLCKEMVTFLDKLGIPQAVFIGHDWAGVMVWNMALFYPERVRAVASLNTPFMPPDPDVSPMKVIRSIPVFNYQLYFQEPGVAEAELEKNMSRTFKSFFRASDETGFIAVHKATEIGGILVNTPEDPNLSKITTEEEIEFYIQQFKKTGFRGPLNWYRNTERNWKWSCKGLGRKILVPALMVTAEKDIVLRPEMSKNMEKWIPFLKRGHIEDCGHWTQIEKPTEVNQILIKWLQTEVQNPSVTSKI
# Test: Inhibition of recombinant mouse sEH, IC50 assay with 4-nitrophenyl-trans-2,3-epoxy-3-phenylpropyl carbonate as substrate
# Type: biochemical
# Conditions: not given
# Method: (§1) Assays were performed in triplicate. […] The curve was generated from at least three separate runs, each in triplicate, to obtain the standard deviation (SD) given in Table 1 thru Table 4.
row,SMILES,IC50
1,O=C(CCCCCCCCCCCNC(=O)NC12CC3CC(CC(C3)C1)C2)NS(=O)(=O)c1ccccc1 [Compound 914],0.05 ± 0.01 µM

# Same assay, conditions: Table 1; 0.12 μM enzyme, 5 min preincubation, pH 7.4, 30° C., [S] = 40 μM; means ± SD of three experiments; read-out: IC50 (μM) Mouse sEH
row,IC50,SMILES
1,0.13 ± 0.03 µM,COC(=O)CCCCNC(=O)NC1CCCCC1 [Compound 854]
2,0.25 ± 0.02 µM,O=C(O)CCCCNC(=O)NC1CCCCC1 [Compound 884]

# Same assay, conditions: Table 4; 0.12 μM enzyme, 5 min preincubation, pH 7.4, 30° C.; means ± SD; read-out: IC50 (μM) Mouse sEH
row,IC50,SMILES
1,0.07 ± 0.01 µM,"O=C(NCCCCCCCCCCCC(=O)OCc1ccccc1)NC12CC3CC(CC(C3)C1)C2 [Compound 804, 1-(1-Adamantyl)-3-(11-benzyloxycarbonylundecyl)urea]"

# Same assay, conditions: Table 5; 0.12 μM enzyme, 5 min preincubation, pH 7.4, 30° C.; means ± SD
row,SMILES,IC90
1,CCOC(=O)COC(=O)CCCNC(=O)NC12CC3CC(CC(C3)C1)C2 [Compound 857],110 ± 10 nM
2,CCOC(=O)CCCOC(=O)CCCNC(=O)NC12CC3CC(CC(C3)C1)C2 [Compound 858],160 ± 10 nM
3,CCOC(=O)CCOC(=O)CCCNC(=O)NC12CC3CC(CC(C3)C1)C2 [Compound 876],630 ± 20 nM

# Continued, values first:
row,IC90,SMILES
1,100 ± 10 nM,CCOC(=O)CCCCOC(=O)CCCNC(=O)NC12CC3CC(CC(C3)C1)C2 [Compound 877]
2,130 ± 10 nM,CCOC(=O)CCCCCCOC(=O)CCCNC(=O)NC12CC3CC(CC(C3)C1)C2 [Compound 878]
3,160 ± 20 nM,CCOC(=O)CCCCCCCOC(=O)CCCNC(=O)NC12CC3CC(CC(C3)C1)C2 [Compound 879]
4,260 ± 30 nM,CCOC(=O)CCCCCCCCCOC(=O)CCCNC(=O)NC12CC3CC(CC(C3)C1)C2 [Compound 880]

# Same assay, conditions: Table 5; […] enzyme, 5 min preincubation, pH 7.4, 30° C.; means ± SD; read-out: Mouse sEH IC50
row,SMILES,IC50
1,CCOC(=O)COC(=O)CCCNC(=O)NC12CC3CC(CC(C3)C1)C2 [Compound 857],0.05 ± 0.01 µM
2,CCOC(=O)CCCOC(=O)CCCNC(=O)NC12CC3CC(CC(C3)C1)C2 [Compound 858],0.05 ± 0.01 µM
3,CCOC(=O)CCOC(=O)CCCNC(=O)NC12CC3CC(CC(C3)C1)C2 [Compound 876],0.05 ± 0.01 µM

# Results, then the compound that gave them:
row,IC50,SMILES
1,0.05 ± 0.01 µM,CCOC(=O)CCCCOC(=O)CCCNC(=O)NC12CC3CC(CC(C3)C1)C2 [Compound 877]
2,0.05 ± 0.01 µM,CCOC(=O)CCCCCCOC(=O)CCCNC(=O)NC12CC3CC(CC(C3)C1)C2 [Compound 878]
3,0.05 ± 0.01 µM,CCOC(=O)CCCCCCCOC(=O)CCCNC(=O)NC12CC3CC(CC(C3)C1)C2 [Compound 879]
4,0.05 ± 0.01 µM,CCOC(=O)CCCCCCCCCOC(=O)CCCNC(=O)NC12CC3CC(CC(C3)C1)C2 [Compound 880]

# Target: T2, human sEH (Homo sapiens, UniProt P34913)
# T2 construct: made in house; host or cells: baculovirus expression system
# T2 sequence (P34913 1-555): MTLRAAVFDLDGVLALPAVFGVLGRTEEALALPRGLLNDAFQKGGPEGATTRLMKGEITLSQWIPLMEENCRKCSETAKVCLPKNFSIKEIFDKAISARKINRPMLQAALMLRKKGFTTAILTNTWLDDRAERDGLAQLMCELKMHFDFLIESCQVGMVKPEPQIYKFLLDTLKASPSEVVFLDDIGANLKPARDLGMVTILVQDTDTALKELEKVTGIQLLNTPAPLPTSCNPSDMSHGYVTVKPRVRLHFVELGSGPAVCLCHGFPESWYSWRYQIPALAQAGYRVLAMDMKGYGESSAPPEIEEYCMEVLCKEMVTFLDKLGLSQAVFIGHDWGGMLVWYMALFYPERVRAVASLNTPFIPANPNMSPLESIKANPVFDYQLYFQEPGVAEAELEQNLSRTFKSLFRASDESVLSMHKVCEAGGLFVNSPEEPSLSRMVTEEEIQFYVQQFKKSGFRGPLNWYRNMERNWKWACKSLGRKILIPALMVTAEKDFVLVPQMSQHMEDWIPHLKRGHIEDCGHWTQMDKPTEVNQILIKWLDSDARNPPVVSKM
# Test: Inhibition of recombinant human sEH, IC50 assay with 4-nitrophenyl-trans-2,3-epoxy-3-phenylpropyl carbonate as substrate
# Type: biochemical
# Conditions: Table 1; […] enzyme, 5 min preincubation, pH 7.4, 30° C., [S] = 40 μM; means ± SD of three experiments; read-out: IC50 (μM) Human sEH
# Method: as §1
row,IC50,SMILES
1,5 ± 0.6 µM,COC(=O)CCCCNC(=O)NC1CCCCC1 [Compound 854]
2,2.4 ± 0.1 µM,O=C(O)CCCCNC(=O)NC1CCCCC1 [Compound 884]

# Same assay, conditions: Table 4; […] enzyme, 5 min preincubation, pH 7.4, 30° C.; means ± SD; read-out: IC50 (μM) Human sEH
row,IC50,SMILES
1,0.13 ± 0.01 µM,"O=C(NCCCCCCCCCCCC(=O)OCc1ccccc1)NC12CC3CC(CC(C3)C1)C2 [Compound 804, 1-(1-Adamantyl)-3-(11-benzyloxycarbonylundecyl)urea]"

# Same assay, conditions: Table 5; 0.24 μM enzyme, 5 min preincubation, pH 7.4, 30° C.; means ± SD
row,SMILES,IC90
1,CCOC(=O)COC(=O)CCCNC(=O)NC12CC3CC(CC(C3)C1)C2 [Compound 857],9000 ± 2000 nM
2,CCOC(=O)CCCOC(=O)CCCNC(=O)NC12CC3CC(CC(C3)C1)C2 [Compound 858],5000 ± 100 nM
3,CCOC(=O)CCOC(=O)CCCNC(=O)NC12CC3CC(CC(C3)C1)C2 [Compound 876],9000 ± 2000 nM

# Next, values leading:
row,IC90,SMILES
1,1500 ± 100 nM,CCOC(=O)CCCCOC(=O)CCCNC(=O)NC12CC3CC(CC(C3)C1)C2 [Compound 877]
2,810 ± 10 nM,CCOC(=O)CCCCCCOC(=O)CCCNC(=O)NC12CC3CC(CC(C3)C1)C2 [Compound 878]
3,720 ± 10 nM,CCOC(=O)CCCCCCCOC(=O)CCCNC(=O)NC12CC3CC(CC(C3)C1)C2 [Compound 879]
4,680 ± 10 nM,CCOC(=O)CCCCCCCCCOC(=O)CCCNC(=O)NC12CC3CC(CC(C3)C1)C2 [Compound 880]

# Same assay, conditions: Table 5; […] enzyme, 5 min preincubation, pH 7.4, 30° C.; means ± SD; read-out: Human sEH IC50
row,SMILES,IC50
1,CCOC(=O)COC(=O)CCCNC(=O)NC12CC3CC(CC(C3)C1)C2 [Compound 857],0.39 ± 0.01 µM
2,CCOC(=O)CCCOC(=O)CCCNC(=O)NC12CC3CC(CC(C3)C1)C2 [Compound 858],0.12 ± 0.01 µM
3,CCOC(=O)CCOC(=O)CCCNC(=O)NC12CC3CC(CC(C3)C1)C2 [Compound 876],0.54 ± 0.05 µM

# Other lines, results leading:
row,IC50,SMILES
1,0.13 ± 0.01 µM,CCOC(=O)CCCCOC(=O)CCCNC(=O)NC12CC3CC(CC(C3)C1)C2 [Compound 877]
2,0.12 ± 0.01 µM,CCOC(=O)CCCCCCOC(=O)CCCNC(=O)NC12CC3CC(CC(C3)C1)C2 [Compound 878]
3,0.11 ± 0.01 µM,CCOC(=O)CCCCCCCOC(=O)CCCNC(=O)NC12CC3CC(CC(C3)C1)C2 [Compound 879]
4,0.1 ± 0.01 µM,CCOC(=O)CCCCCCCCCOC(=O)CCCNC(=O)NC12CC3CC(CC(C3)C1)C2 [Compound 880]

# Same assay, conditions: Tables 17a and b; read-out: IC50 (μM) Human sEH
row,SMILES,IC50
1,O=C(CCCCCCCCCCCNC(=O)NC12CC3CC(CC(C3)C1)C2)NS(=O)(=O)c1ccccc1 [Compound 914],0.1 ± 0.01 µM
